In BindingDB's records for doi:10.1021/jm00384a019 (1987) one finds Ki data, which are given here for five molecules.

The target of the test is DNA polymerase alpha (Cricetulus griseus). Nature of the test: Compound was evaluated for the concentration which gives half-maximal inhibition of Chinese Hamster Ovary DNA polymerase alpha.

For the molecule `CCCCc1ccc(Nc2nc(Cl)c3[nH]cnc3n2)cc1` [(4-Butyl-phenyl)-(6-chloro-9H-purin-2-yl)-amine], the inhibition constant (Ki) was determined as 2.6 µM. Regarding `CCCCc1ccc(Nc2nc(OC)c3[nH]cnc3n2)cc1` [(4-Butyl-phenyl)-(6-methoxy-9H-purin-2-yl)-amine], affinity was put at a Ki of 1.4 µM. The result for `CCCCc1ccc(Nc2nc(SC)c3[nH]cnc3n2)cc1` [(4-Butyl-phenyl)-(6-methylsulfanyl-9H-purin-2-yl)-amine] reads 1 µM. Then `CCCCc1ccc(Nc2ncc3[nH]cnc3n2)cc1` [(4-Butyl-phenyl)-(9H-purin-2-yl)-amine], with 5 µM.

`CCCCc1ccc(Nc2nc(N)c3[nH]cnc3n2)cc1` [N*2*-(4-Butyl-phenyl)-9H-purine-2,6-diamine] showed a Ki of 14.4 µM.
